In patent publication US6642238B2, “Oxazolidinone thioamides with piperazine amide substituents” (Pharmacia and Upjohn Company, priority 2000, dated 2003):
≈ marks a conversion by molar mass, not a printed value.

Key:
[1] = system: Staphylococcus aureus (SAUR 9213); test: MIC by agar dilution, SAUR 9213; format: cell-based; details: Minimum Inhibitory Concentration, strain SAUR 9213; for MIC: Staphylococcus aureus
Excerpt: (§1) The oxazolidinone antibacterial agents of this invention have useful activity against a variety of organisms. The in vitro activity of compounds of this invention can be assessed by standard testing procedures such as the determination of minimum inhibitory concentration (MIC) by agar dilution as described in “Approved Standard. Methods for Dilution Antimicrobial Susceptibility Tests for Bacteria That Grow Aerobically”, 3rd. ed., published 1993 by the National Committee for Clinical Laboratory Standards, Villanova, Pa., USA. The activity of compounds of this invention against Staphylococcus aureus, Staphylococcus epidermidis, Streptococcus pneumoniae, Streptococcus pyogens, Enterococcus faecalis, Moraxella catarrhalis and H. influenzae is shown in Table 1.

[2] = system: Staphylococcus epidermidis (SEPI 30593); test: MIC by agar dilution, SEPI 30593; format: cell-based; details: Minimum Inhibitory Concentration, strain SEPI 30593; for MIC: Staphylococcus epidermidis
Excerpt: as §1

[3] = system: Enterococcus faecalis (EFAE 12712); test: MIC by agar dilution, EFAE 12712; format: cell-based; details: Minimum Inhibitory Concentration, strain EFAE 12712; for MIC: Enterococcus faecalis
Excerpt: as §1

[4] = system: Streptococcus pneumoniae (SPNE 9912); test: MIC by agar dilution, SPNE 9912; format: cell-based; details: Minimum Inhibitory Concentration, strain SPNE 9912; for MIC: Streptococcus pneumoniae
Excerpt: as §1

[5] = system: Streptococcus pyogens (SPYO 152); test: MIC by agar dilution, SPYO 152; format: cell-based; details: Minimum Inhibitory Concentration, strain SPYO 152; for MIC: Streptococcus
Excerpt: as §1

[6] = system: H. influenzae (HINF 30063); test: MIC by agar dilution, HINF 30063; format: cell-based; details: Minimum Inhibitory Concentration, strain HINF 30063; for MIC: Haemophilus influenzae
Excerpt: as §1

[7] = system: Enterococcus faecalis (EFAE 9217); test: MIC by agar dilution, EFAE 9217; format: cell-based; details: Minimum Inhibitory Concentration, strain EFAE 9217; for MIC: Enterococcus faecalis
Excerpt: as §1

[8] = system: Moraxella catarrhalis (MCAT 30607); test: MIC by agar dilution, MCAT 30607; format: cell-based; details: Minimum Inhibitory Concentration, strain MCAT 30607; for MIC: Moraxella catarrhalis
Excerpt: as §1

Molecule	MIC [1] [µg/mL]	MIC [2] [µg/mL]	MIC [3] [µg/mL]	MIC [4] [µg/mL]	MIC [5] [µg/mL]	MIC [6] [µg/mL]	MIC [7] [µg/mL]	MIC [8] [µg/mL]	melting point	SAUR 9213 MIC [1] [µg/mL]	SEPI 30593 MIC [2] [µg/mL]	EFAE 12712 MIC [3] [µg/mL]	SPNE 9912 MIC [4]	SPYO 152 MIC [5] [µg/mL]	HINF 30063 MIC [6] [µg/mL]	EFAE 9217 MIC [7] [µg/mL]	MCAT 30607 MIC [8] [µg/mL]
CCC(=S)NC[C@H]1CN(c2ccc(N3CCN(C(C)=S)CC3)c(F)c2)C(=O)O1 [EX 4, N-({(5S)-3-[4-(4-ethanethiolyl-1-piperazinyl)-3-fluorophenyl]2-oxo-1,3-oxazolidin-5-yl}methyl)propanethioamide]	0.5 (≈ 1.18 µM)	0.25 (≈ 0.589 µM)	0.5 (≈ 1.18 µM)	0.125 (≈ 0.294 µM)	0.125 (≈ 0.294 µM)	1 (≈ 2.36 µM)	0.5 (≈ 1.18 µM)	1 (≈ 2.36 µM)	209 to 210 °C								
CCC(=S)NC[C@H]1CN(c2ccc(N3CCN(C#N)CC3)c(F)c2)C(=O)O1 [EX 5, N-({(5S)-3-[4-(4-cyano-1-piperazinyl)-3-fluorophenyl]-2-oxo-1,3-oxazolidin-5-yl}methyl)propanethioamide]	0.25 (≈ 0.639 µM)	0.25 (≈ 0.639 µM)	0.25 (≈ 0.639 µM)	0.125 (≈ 0.319 µM)	0.125 (≈ 0.319 µM)	2 (≈ 5.11 µM)	0.25 (≈ 0.639 µM)	1 (≈ 2.55 µM)	182 to 184 °C								
CCC(=S)NC[C@H]1CN(c2ccc(N3CCN(C(=O)[C@H](O)CO)CC3)c(F)c2)C(=O)O1 [EX 17, N-({(5S)-3-[3-fluoro-4-[4-((2R)-2,3-dihydroxypropanoyl)-1-piperazinyl]phenyl]-2-oxo-1,3-oxazolidin-5-yl}methyl)propanethioamide]	4 (≈ 8.8 µM)	0.5 (≈ 1.1 µM)	1 (≈ 2.2 µM)	0.25 (≈ 0.55 µM)	0.5 (≈ 1.1 µM)	8 (≈ 17.6 µM)	0.5 (≈ 1.1 µM)	2 (≈ 4.4 µM)	132 °C (dec.)								
CCC(=S)NC[C@H]1CN(c2ccc(N3CCN(C(=O)[C@H](O)c4ccccc4)CC3)c(F)c2)C(=O)O1 [EX 21, N-[((5S)-3-{3-fluoro-4-[4-((2R)-2-hydroxy-2-phenylacetyl)-1-piperazinyl]phenyl}-2-oxo-1,3-oxazolidin-5-yl)methyl]propanethioamide]	4 (≈ 7.99 µM)	1 (≈ 2 µM)	2 (≈ 4 µM)	1 (≈ 2 µM)	2 (≈ 4 µM)	64 (≈ 128 µM)	2 (≈ 4 µM)	4 (≈ 7.99 µM)									
CCC(=S)NC[C@H]1CN(c2ccc(N3CCN(C(=O)CCO)CC3)c(F)c2)C(=O)O1 [EX 13]	2 (≈ 4.56 µM)	1 (≈ 2.28 µM)	1 (≈ 2.28 µM)	0.5 (≈ 1.14 µM)	0.5 (≈ 1.14 µM)	8 (≈ 18.2 µM)	1 (≈ 2.28 µM)	2 (≈ 4.56 µM)									
CCC(=S)NC[C@H]1CN(c2ccc(N3CCN(C(=O)[C@@H](O)Cc4ccccc4)CC3)c(F)c2)C(=O)O1 [EX 19, N-[((5S)-3-{3-fluoro-4-[4-((2S)-2-hydroxy-3-phenylpropanoyl)-1-piperazinyl]phenyl}-2-oxo-1,3-oxazolidin-5-yl)methyl]propanethioamide]	2 (≈ 3.89 µM)	2 (≈ 3.89 µM)	2 (≈ 3.89 µM)	< 0.5	1 (≈ 1.94 µM)	> 64	2 (≈ 3.89 µM)	8 (≈ 15.5 µM)	174 to 175 °C								
N{[(5S)-3-(3-fluoro-4-{4-[2-(methylsulfinyl)acetyl]-1-piperazinyl}phenyl)-2-oxo-1,3-oxazolidin-5-yl]methyl }propanethioamide [EX 1]										4	1	2	.05 µg/mL	2	8	1	8
CCC(=S)NC[C@H]1CN(c2ccc(N3CCN(C(=O)CS(C)(=O)=O)CC3)c(F)c2)C(=O)O1 [EX 3, N-{ [(5S)-3-(3-fluoro-4-{4-[2-(methylsulfonyl)acetyl]-1-5 piperazinyl}phenyl]-2-oxo-1,3-oxazolidin-5-yl]methyl}propanethioamide]	2 (≈ 4.11 µM)	0.5 (≈ 1.03 µM)	1 (≈ 2.06 µM)	0.25 (≈ 0.514 µM)	0.5 (≈ 1.03 µM)	8 (≈ 16.4 µM)	0.5 (≈ 1.03 µM)	2 (≈ 4.11 µM)									
CCC(=S)NC[C@H]1CN(c2ccc(N3CCN(C(=O)C(CO)OC)CC3)c(F)c2)C(=O)O1 (stereo partly drawn) [EX 10, N-[((5S)-3-{3-fluoro-4-[4-((2S)-3-hydroxy-2-methyoxypropanoyl)-1-piperazinyl]phenyl}-2-oxo-1,3-oxazolidin-5-yl)methyl]propanethioamide]	4 (≈ 8.54 µM)	2 (≈ 4.27 µM)	2 (≈ 4.27 µM)	1 (≈ 2.13 µM)	1 (≈ 2.13 µM)	16 (≈ 34.1 µM)	1 (≈ 2.13 µM)	4 (≈ 8.54 µM)									
CCC(=S)NC[C@H]1CN(c2ccc(N3CCN(C(=O)[C@@H](OC(C)=O)c4ccccc4)CC3)c(F)c2)C(=O)O1 [EX 22, N-[((5S)-3-{3-fluoro-4-[4-((2S)-2-acetoxy-2-phenylacetyl)-1-piperazinyl]phenyl}-2-oxo-1,3-oxazolidin-5-yl)methyl]propanethioamide]	8 (≈ 14.7 µM)	4 (≈ 7.37 µM)	4 (≈ 7.37 µM)	2 (≈ 3.69 µM)	4 (≈ 7.37 µM)	> 64	4 (≈ 7.37 µM)	8 (≈ 14.7 µM)									
CCC(=S)NC[C@H]1CN(c2ccc(N3CCN(C(=O)CSC)CC3)c(F)c2)C(=O)O1 [EX 2, N-{[(5S)-3-(3-fluoro-4-{4-[2-(methylsulfanyl)acetyl]-1-piperazinyl}phenyl)-2-oxo-1,3-oxazolidin-5-yl]methyl}propanethioamide]	2 (≈ 4.4 µM)	1 (≈ 2.2 µM)	1 (≈ 2.2 µM)	< 0.5	1 (≈ 2.2 µM)	> 64	1 (≈ 2.2 µM)	4 (≈ 8.8 µM)									
CCC(=S)NC[C@H]1CN(c2ccc(N3CCN(C(=O)[C@H](O)Cc4ccccc4)CC3)c(F)c2)C(=O)O1 [EX 20, N-[((5S)-3-{3-fluoro-4-[4-((2R)-2-hydroxy-3-phenylpropanoyl)-1-piperazinyl]phenyl}-2-oxo-1,3-oxazolidin-5-yl)methyl]propanethioamide]	1 (≈ 1.94 µM)	1 (≈ 1.94 µM)	1 (≈ 1.94 µM)	< 0.5	1 (≈ 1.94 µM)	64 (≈ 124 µM)	1 (≈ 1.94 µM)	4 (≈ 7.77 µM)	128 to 130 °C (dec.)								
CCC(=S)NC[C@H]1CN(c2ccc(N3CCN(C(=O)[C@H](COC)OC)CC3)c(F)c2)C(=O)O1 [EX 9, N-[((5S)-3-{3-fluoro-4-[4-((2S)-2,3-dimethyoxypropanoyl)-1-piperazinyl]phenyl}-2-oxo-1,3-oxazolidin-5-yl)methyl]propanethioamide]										4	2	4	1 µg/mL	1	32	2	4
CCC(=S)NC[C@H]1CN(c2ccc(N3CCN(C(=O)C(C)(CO)CO)CC3)c(F)c2)C(=O)O1 [EX 18, N-{[(5S)-3-(3-fluoro-4-{4-[3-hydroxy-2-(hydroxymethyl)-2-mnethylpropanoyl]-1-piperazinyl}phenyl)-2-oxo-1,3-oxazolidin-5-yl]methyl}propanethioamide]										4	1	2	0.5 µg/mL	1	32	2	4
